# Source: patent USRE44017E1, “N-acetyl aldosamines, N-acetylamino acids and related N-acetyl compounds and their topical use” (priority 1999, dated 2013)
# “And” between values parts separate entries of the source, which are not always exact repeats. Equal values may be shown once.
# Legend:
# forearm skin = test: Skin thickness of treated forearm measured by micrometer calipers; format: in vivo, human; details: for increase in skin thickness: topically twice daily, treated forearm, no change in untreated forearm; for appearance of treated forearm: twice daily, untreated forearm still loose, thin and wrinkled
# Description: In one of the studies related to skin changes associated with aging, skin thickness was measured by micrometer calipers as follows: The skin was grasped with a 2×6 cm metal hinge, the internal faces of the hinge were coated with emery cloth to prevent slippage, and manually squeezed to threshold subject discomfort. Combined thickness of two whole-skin layers including thickness of the two hinge leaves was measured with micrometer calipers. Thickness of the two hinge leaves was subtracted to determine the actual thickness of two whole-skin layers. Triplicate measurements on treated site were done and an average number was used for calculation of the skin thickness.
# [1] = system: photodamaged / photoaged skin; details: cited from earlier work
# itch / pruritus = test: Topical application to itchy skin or scalp lesions of single subjects; format: in vivo, human; details: person
# Description: A subject, having an itchy lesion of lichen simplex chronicus on their right lower leg topically applied the above cream to the lesion.
# A typical composition suitable for topical use on hair, scalp, nail and skin comprising for example N-acetylamino acid may be formulated as follows. N-Acetyl-DL-proline 2 g was dissolved in 98 ml solution prepared from water 40 ml, ethanol 40 ml and propylene glycol 20 ml. The composition with pH 2.7 contained 2% N-acetyl-DL-proline. A subject, having itchy scalp topically applied the above composition to itchy area of scalp.
# N-Acetyl-L-lysine 2 g was dissolved in a 98 ml solution prepared from water 40 ml, ethanol 40 ml and propylene glycol 20 ml. The composition with pH 6.5 contained 2% N-acetyl-L-lysine. A subject, having an oily and pruritic scalp topically applied the above composition to the affected area of the scalp, and the area was dried with warm air to remove excess solvents.
# The subject topically applied N-acetyl-DL-proline 5% in oil-in-water cream to the itchy lesions.
# A subject with chronic nummular eczema and pruritic dry skin topically applied N-acetyl-DL-proline 5% in solution to itchy skin areas of eczema and dry skin lesions.
# A subject, having axillary itch due to use of a conventional antiperspirant topically applied N-acetyl-DL-proline 5% in solution to itchy underarm skin areas.
# The subject topically applied N-acetyl-L-glutamine 5% in a solution prepared from water 4 parts, ethanol 4 parts and propylene glycol 2 parts by volume.
# The subject topically applied N-acetyl-α-D-glucosamine 5% in a solution prepared from water 4 parts, ethanol 4 parts and propylene glycol 2 parts by volume.
# [2] = system: adolescent acne with multiple papules and pustules on face; test: Topical treatment of acne; format: in vivo, human; details: 5% solution, twice daily, after a few days, subject
# Source text: A subject who had adolescent acne with multiple papules and pustules on their face applied topically twice daily 5% N-acetyl-glucosamine solution.
# [3] = system: xerosis and dry skin on lower legs; test: Topical treatment of xerosis and dry skin; format: in vivo, human; details: 5% cream, twice daily, one week, subject
# Source text: A subject who had xerosis and dry skin on lower legs topically applied twice daily 5% N-acetyl-glucosamine cream for one week. After a few days of topical treatment, the skin became less rough and scaly, and felt smooth.
# [4] = system: forearm skin (epidermis, papillary dermis); test: Biological effects of topically applied N-acetyl compound on skin: test chambers on forearm, punch biopsy, histochemical staining; format: in vivo, human; details: 2% solution in water/propylene glycol, occlusive test chambers renewed twice weekly, five weeks
# Description: In order to determine biological effects of a topically applied N-acetyl compound of the instant invention, seven women and one person of ages ranging from 58 to 81 years participated in this study. Topical formulation for the study was N-acetyl-L-cysteine 2% in a solution prepared from water 80 ml and propylene glycol 20 ml. Test sites were 1 cm square sites on extensor surface of forearm, 5 cm from the antecubital crease, a grid pattern formed by Hayes Test Chambers on Hayes adhesive strips. Each test chamber, 1 cm square, contained a square piece of filter paper which was fully moistened with 0.033 ml test solution. Test chambers were impressed on the skin to leave outlines which were marked with Sanford Sharpie permanent marker. Sites were re-marked at each successive application of test solutions. Vehicle control sites were on the opposite forearm. Filter paper of each chamber was saturated with 0.033 ml solution and chambers were fixed in place with the Hayes adhesive tape that held the test and vehicle chambers. […] Punch biopsy specimens, 3 mm or 4 mm in diameter, were secured at the end of the study, and specimens were processed and analyzed. […] Epidermal thickness was measured with Micro Image Analysis System, and the mean thickness was expressed as area of epidermis/horizontal length. The thickness of papillary dermis (upper dermis) was also measured.
# [5] = ordinary storage conditions; results in a malodorous smell; cited from earlier work
# [6] = 10% cream, three weeks, one subject per value
# [7] = 0.1% cream, topical application for 8 to 12 months (Weiss et al., JAAD 1988)
# [8] = 5% cream, three weeks, one subject per value
# [9] = 10% cream, four weeks, one subject per value
# [10] = 2% solution (water/ethanol/propylene glycol), pH 2.7, itchy scalp
# [11] = 5% in oil-in-water cream, chronic Grover's Disease
# [12] = 5% in solution, axillary itch due to antiperspirant
# [13] = 5% in solution, chronic nummular eczema and pruritic dry skin
# [14] = 2% solution, pH 6.5, oily and pruritic scalp
# [15] = 5% in solution of water 4, ethanol 4, propylene glycol 2 parts, chronic Grover's Disease
# [16] = 5% in solution, acute urticaria
smiles,measurement,setting,value
CC(=O)NC(Cc1c[nH]c2ccccc12)C(=O)O (racemic) [N-acetyl-DL-tryptophan],increase in skin thickness,"forearm skin; 10% cream, five weeks, one subject",12%
same,increase in skin thickness,forearm skin; [6],11% and 21%
same,appearance of treated forearm,"forearm skin; 10% cream, five weeks","more firm, smooth, plump and minimally wrinkled when lifted"
same,appearance of treated forearm,"forearm skin; 10% cream, three weeks","more firm, smooth, plump and minimally wrinkled when lifted"
CC1=C(/C=C/C(C)=C/C=C/C(C)=C/C(=O)O)C(C)(C)CCC1 [tretinoin],effect on photodamaged skin,"[1]; 0.05% in a cream, daily topical application (Kligman et al. 1986)",improve photodamaged skin
same,effect on aging skin,[1]; [7],improve clinical signs of aging skin
same,side effects,[1]; [7],burning sensation in the eyes and mild skin irritations
same,patients encountering dermatitis (side-effect),"[1]; 0.1%, daily topical application, 16 weeks (Weiss et al., JAMA 1988)",92%
same,effect on photoaged skin,"[1]; 0.1%, daily topical application, 16 weeks, compared to vehicle alone (Weiss et al., JAMA 1988)",improve photoaged skin
COC(=O)[C@H](CS)NC(C)=O [N-acetyl-L-cysteine methyl ester],increase in skin thickness,forearm skin; [8],13% and 87%
same,appearance of treated forearm,"forearm skin; 5% cream, three weeks","more firm, smooth, plump and minimally wrinkled when lifted"
same,increase in skin thickness,forearm skin; [6],26%
same,appearance of treated forearm,"forearm skin; 10% cream, three weeks","more firm, smooth, plump and minimally wrinkled when lifted"
CC(=O)N[C@@H](CCCNC(=N)N)C(=O)O [N-acetyl-L-arginine],increase in skin thickness,forearm skin; [9],32% and 22%
same,appearance of treated forearm,"forearm skin; 10% cream, four weeks","more firm, smooth, plump and minimally wrinkled when lifted"
CC(=O)N1CCCC1C(=O)O (racemic) [N-acetyl-DL-proline],scalp itch a few minutes after topical application,itch / pruritus; [10],disappeared completely
same,time scalp remained free of itch,itch / pruritus; [10],24 h
same,severe itch a few minutes after topical application,itch / pruritus; [11],disappeared completely
same,time lesions remained free of itch,itch / pruritus; [11],12 h
same,itch within a few minutes after topical application,itch / pruritus; [12],disappeared completely
same,time skin remained free of itch,itch / pruritus; [12],five
same,itch a few minutes after topical application,itch / pruritus; [13],disappeared completely
same,time lesions remained free of itch,itch / pruritus; [13],48 h
CC(=O)N[C@@H](CCCCN)C(=O)O [N-acetyl-L-lysine],scalp itch a few minutes after topical application,itch / pruritus; [14],disappeared completely
same,time scalp remained free of itch,itch / pruritus; [14],12 h
CCOC(=O)[C@H](Cc1ccc(O)cc1)NC(C)=O [N-acetyl-L-tyrosine ethyl ester],increase in skin thickness,forearm skin; [9],11% and 34%
same,appearance of treated forearm,"forearm skin; 10% cream, four weeks","more firm, smooth, plump and minimally wrinkled when lifted"
CC(=O)N[C@@H](CCC(N)=O)C(=O)O [N-acetyl-L-glutamine],severe itch a few minutes after topical application,itch / pruritus; [15],disappeared completely
same,time lesions remained free of itch,itch / pruritus; [15],24 h
"CC(=O)N[C@@H]1[C@@H](O)[C@H](O)[C@@H](CO)O[C@@H]1O [N-acetyl-glucosamine, N-Acetyl-α-D-glucosamine]",increase in skin thickness,forearm skin; [6],37%
same,appearance of treated forearm,"forearm skin; 10% cream, three weeks","more firm, smooth, plump and minimally wrinkled when lifted"
same,effect on acne lesions,[2],most lesions became less inflamed and gradually eradicated
same,severe itch a few minutes after topical application,itch / pruritus; [15],disappeared completely
same,time lesions remained free of itch,itch / pruritus; [15],24 h
same,effect on xerosis and dry skin,[3],returned to normal-looking skin
CC(=O)N[C@@H](CS)C(=O)O [N-acetyl-L-cysteine],increase in skin thickness,forearm skin; [8],14%
same,appearance of treated forearm,"forearm skin; 5% cream, three weeks","more firm, smooth, plump and minimally wrinkled when lifted"
same,average increase in thickness of epidermis over the control,"[4]; 8 subjects aged 58 to 81, vehicle control on opposite forearm",96%
same,increase in production of hyaluronic acid in papillary dermis over the control,[4]; all test sites,47-227%
same,stability on storage,[5],degrade under ordinary storage conditions
CC(=O)N[C@H]1C(O)O[C@H](CO)[C@H](O)[C@@H]1O (stereo partly drawn) [N-acetyl-D-galactosamine],effect on urticarial lesions,itch / pruritus; [16],concomitant disappearance of urticarial lesions
same,severe itch a few minutes after topical application,itch / pruritus; [16],disappeared completely
same,time skin remained free of itch,itch / pruritus; [16],24 h
CC(=O)NC1CCSC1=O (racemic) [N-acetyl-DL-homocysteine thiolactone],increase in skin thickness,forearm skin; [8],89% and 21%
same,appearance of treated forearm,"forearm skin; 5% cream, three weeks","more firm, smooth, plump and minimally wrinkled when lifted"
